Data from patent publication US8952024B2, “Herbicidal pyrimidone derivatives” (E I du Pont de Nemours and Company, priority 2009, dated 2015).

Legend:
Format in all cases: in vivo
[1] = test system: cocklebur (Xanthium strumarium); experiment: Test B pre-/postemergence plant response
Method in brief: (§1)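 Compound in solvent + surfactant applied pre-em (loam/sand) or post-em (plants 2–18 cm, peat medium); greenhouse hold 13–15 days; visual 0–100 control score.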

[2] = test system: large crabgrass (Digitaria sanguinalis); experiment: Test B pre-/postemergence plant response
Method in brief: as §1

[3] = test system: bermudagrass (Cynodon dactylon); experiment: Test B pre-/postemergence plant response
Method in brief: as §1

[4] = test system: yellow nutsedge (Cyperus esculentus); experiment: Test B pre-/postemergence plant response
Method in brief: as §1

[5] = test system: lambsquarters (Chenopodium album); experiment: Test B pre-/postemergence plant response
Method in brief: as §1

[6] = test system: wheat (Triticum aestivum); experiment: Test B pre-/postemergence plant response
Method in brief: as §1

wild oat (Avena fatua) = experiment: Test B pre-/postemergence plant response
Method in brief: as §1

[7] = test system: morningglory (Ipomoea coccinea); experiment: Test B pre-/postemergence plant response
Method in brief: as §1

[8] = test system: goosegrass (Eleusine indica); experiment: Test B pre-/postemergence plant response
Method in brief: as §1

[9] = test system: green foxtail (Setaria viridis); experiment: Test B pre-/postemergence plant response
Method in brief: as §1

[10] = test system: barnyardgrass (Echinochloa crus-galli); experiment: Test B flooded paddy test; details: for Plant response rating, Flood, Barnyardgrass: 250 g ai/ha, flooded paddy test, visual rating on 0 to 100 scale (0 no effect, 100 complete control) after 13 to 15 days; for Plant response rating, Barnyardgrass: Flood (flooded paddy test), 13 to 15 days
Method in brief: (§2)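 Post-flood paddy application: compounds are introduced into water 3 cm deep over the soil, reaching plants at the 2-leaf stage. The water level is maintained, and after 13–15 days under greenhouse conditions, response is judged by eye relative to controls, where 100 means complete control.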

[11] = test system: umbrella sedge (Cyperus difformis); experiment: Test B flooded paddy test; details: for Plant response rating, Flood, Sedge, Umbrella: 250 g ai/ha, flooded paddy test, visual rating on 0 to 100 scale (0 no effect, 100 complete control) after 13 to 15 days; for Plant response rating, Sedge, Umbrella: Flood (flooded paddy test), 13 to 15 days
Method in brief: as §2

[12] = 31 g ai/ha, postemergence, scale 0 to 100, 0 is no effect, 100 is complete control
[13] = 250 g ai/ha, Preemergence, 0 to 100 scale
[14] = Postemergence, 62 g ai/ha, scale 0 (no effect) to 100 (complete control), 13 to 15 days
[15] = Postemergence, 125 g ai/ha, visual rating after 13 to 15 days, scale 0 (no effect) to 100 (complete control)
[16] = Postemergence, 250 g ai/ha, scale 0 to 100 (0 no effect, 100 complete control)
[17] = Preemergence, 31 g ai/ha, scale 0 to 100 (0 no effect, 100 complete control)
[18] = Preemergence, 62 g ai/ha, scale 0 to 100 (0 no effect, 100 complete control)
[19] = Preemergence, 125 g ai/ha, scale 0 to 100, 0 no effect, 100 complete control
[20] = 31 g ai/ha, scale of 0 to 100 where 0 is no effect and 100 is complete control
[21] = 62 g ai/ha, scale of 0 to 100 where 0 is no effect and 100 is complete control
[22] = 125 g ai/ha, scale 0 to 100, 0 is no effect, 100 is complete control
[23] = 62 g ai/ha, postemergence, 0 is no effect, 100 is complete control, 13 to 15 days
[24] = Flood, 31 g ai/ha, scale 0 to 100 (0 no effect, 100 complete control)

## O=C1CCCC(O)=C1C(=O)c1cnc(-c2ccccc2)n(CC2CCCO2)c1=O (centres unmarked) [Compound 59]
[1]; [12]
  Plant response rating, Cocklebur: 85
[1]; [13]
  Plant response rating, Cocklebur: 75
[1]; [14]
  Plant response rating, Cocklebur: 85
[1]; [15]
  Plant response rating, Cocklebur: 90
[1]; [16]
  Plant response rating, Cocklebur: 100
[1]; [17]
  Plant response rating, Cocklebur: 0
[1]; [18]
  Plant response rating, Cocklebur: 0
[1]; [19]
  Plant response rating, Cocklebur: 10
[2]; [12]
  Plant response rating, Crabgrass, Large: 80
[2]; [13]
  Plant response rating, Crabgrass, Large: 98
[2]; [14]
  Plant response rating, Crabgrass, Large: 85
[2]; [15]
  Plant response rating, Crabgrass, Large: 95
[2]; [16]
  Plant response rating, Crabgrass, Large: 100
[2]; [17]
  Plant response rating, Crabgrass, Large: 55
[2]; [18]
  Plant response rating, Crabgrass, Large: 95
[2]; [19]
  Plant response rating, Crabgrass, Large: 98
[3]; [13]
  Plant response rating, Bermudagrass: 98
[3]; [14]
  Plant response rating, Bermudagrass: 90
[3]; [15]
  Plant response rating, Bermudagrass: 98
[3]; [16]
  Plant response rating, Bermudagrass: 100
[3]; [17]
  Plant response rating, Bermudagrass: 10
[3]; [18]
  Plant response rating, Bermudagrass: 98
[3]; [19]
  Plant response rating, Bermudagrass: 98
[4]; [12]
  Plant response rating, Nutsedge, Yellow: 45
[4]; [14]
  Plant response rating, Nutsedge, Yellow: 60
[4]; [15]
  Plant response rating, Nutsedge, Yellow: 70
[4]; [16]
  Plant response rating, Nutsedge, Yellow: 75
[4]; [17]
  Plant response rating, Nutsedge, Yellow: 55
[4]; [18]
  Plant response rating, Nutsedge, Yellow: 65
[4]; [19]
  Plant response rating, Nutsedge, Yellow: 85
[5]; [12]
  Plant response rating, Lambsquarters: 95
[5]; [13]
  Plant response rating, Lambsquarters: 100
[5]; [14]
  Plant response rating, Lambsquarters: 98
[5]; [15]
  Plant response rating, Lambsquarters: 100
[5]; [16]
  Plant response rating, Lambsquarters: 100
[5]; [17]
  Plant response rating, Lambsquarters: 98
[5]; [18]
  Plant response rating, Lambsquarters: 100
[5]; [19]
  Plant response rating, Lambsquarters: 100
[6]; [12]
  Plant response rating, Wheat: 0
[6]; [14]
  Plant response rating, Wheat: 5
[6]; [15]
  Plant response rating, Wheat: 10
[6]; [16]
  Plant response rating, Wheat: 60
[6]; [17]
  Plant response rating, Wheat: 0
[6]; [18]
  Plant response rating, Wheat: 0
[6]; [19]
  Plant response rating, Wheat: 0
Wild oat (Avena fatua); [12]
  Plant response rating, Oat, Wild: 30
Wild oat (Avena fatua); [14]
  Plant response rating, Oat, Wild: 40
Wild oat (Avena fatua); [15]
  Plant response rating, Oat, Wild: 55
Wild oat (Avena fatua); [16]
  Plant response rating, Oat, Wild: 80
Wild oat (Avena fatua); [17]
  Plant response rating, Oat, Wild: 0
Wild oat (Avena fatua); [18]
  Plant response rating, Oat, Wild: 0
Wild oat (Avena fatua); [19]
  Plant response rating, Oat, Wild: 0
[7]; [14]
  Plant response rating, Morningglory: 50
[7]; [15]
  Plant response rating, Morningglory: 80
[7]; [16]
  Plant response rating, Morningglory: 80
[7]; [18]
  Plant response rating, Morningglory: 0
[7]; [19]
  Plant response rating, Morningglory: 55
[8]; [12]
  Plant response rating, Goosegrass: 75
[8]; [13]
  Plant response rating, Goosegrass: 100
[8]; [14]
  Plant response rating, Goosegrass: 80
[8]; [15]
  Plant response rating, Goosegrass: 95
[8]; [16]
  Plant response rating, Goosegrass: 95
[8]; [17]
  Plant response rating, Goosegrass: 98
[8]; [18]
  Plant response rating, Goosegrass: 98
[8]; [19]
  Plant response rating, Goosegrass: 100
[9]; [12]
  Plant response rating, Foxtail, Green: 50
[9]; [13]
  Plant response rating, Foxtail, Green: 98
[9]; [14]
  Plant response rating, Foxtail, Green: 70
[9]; [15]
  Plant response rating, Foxtail, Green: 70
[9]; [16]
  Plant response rating, Foxtail, Green: 70
[9]; [18]
  Plant response rating, Foxtail, Green: 70
[9]; [19]
  Plant response rating, Foxtail, Green: 90
[10]
  Plant response rating, Flood, Barnyardgrass: 45
[10]; [20]
  Plant response rating, Barnyardgrass: 0
[10]; [21]
  Plant response rating, Barnyardgrass: 0
[10]; [22]
  Plant response rating, Barnyardgrass: 20
[11]
  Plant response rating, Flood, Sedge, Umbrella: 75
[11]; [20]
  Plant response rating, Sedge, Umbrella: 30
[11]; [21]
  Plant response rating, Sedge, Umbrella: 40
[11]; [22]
  Plant response rating, Sedge, Umbrella: 50

## O=C1CCCC(O)=C1C(=O)c1cnc(-c2ccccc2Br)n(-c2ccccc2)c1=O [Compound 71]
[1]; [12]
  Plant response rating, Cocklebur: 65
[1]; [23]
  Cocklebur plant response rating (0 to 100 scale): 65
[1]; [15]
  Plant response rating, Cocklebur: 95
[1]; [16]
  Plant response rating, Cocklebur: 95
[2]; [12]
  Plant response rating, Crabgrass, Large: 65
[2]; [23]
  Crabgrass, Large plant response rating (0 to 100 scale): 75
[2]; [15]
  Plant response rating, Crabgrass, Large: 80
[2]; [16]
  Plant response rating, Crabgrass, Large: 95
[3]; [12]
  Plant response rating, Bermudagrass: 65
[3]; [23]
  Bermudagrass plant response rating (0 to 100 scale): 75
[3]; [15]
  Plant response rating, Bermudagrass: 80
[3]; [16]
  Plant response rating, Bermudagrass: 98
[4]; [12]
  Plant response rating, Nutsedge, Yellow: 10
[4]; [23]
  Nutsedge, Yellow plant response rating (0 to 100 scale): 10
[4]; [15]
  Plant response rating, Nutsedge, Yellow: 10
[4]; [16]
  Plant response rating, Nutsedge, Yellow: 25
[5]; [12]
  Plant response rating, Lambsquarters: 75
[5]; [23]
  Lambsquarters plant response rating (0 to 100 scale): 85
[5]; [15]
  Plant response rating, Lambsquarters: 90
[5]; [16]
  Plant response rating, Lambsquarters: 98
[6]; [12]
  Plant response rating, Wheat: 0
[6]; [23]
  Wheat plant response rating (0 to 100 scale): 0
[6]; [15]
  Plant response rating, Wheat: 0
[6]; [16]
  Plant response rating, Wheat: 5
Wild oat (Avena fatua); [12]
  Plant response rating, Oat, Wild: 0
Wild oat (Avena fatua); [23]
  Oat, Wild plant response rating (0 to 100 scale): 0
Wild oat (Avena fatua); [15]
  Plant response rating, Oat, Wild: 0
Wild oat (Avena fatua); [16]
  Plant response rating, Oat, Wild: 5
[7]; [12]
  Plant response rating, Morningglory: 65
[7]; [23]
  Morningglory plant response rating (0 to 100 scale): 65
[7]; [15]
  Plant response rating, Morningglory: 75
[7]; [16]
  Plant response rating, Morningglory: 80
[8]; [12]
  Plant response rating, Goosegrass: 75
[8]; [23]
  Goosegrass plant response rating (0 to 100 scale): 75
[8]; [15]
  Plant response rating, Goosegrass: 90
[8]; [16]
  Plant response rating, Goosegrass: 90
[9]; [12]
  Plant response rating, Foxtail, Green: 60
[9]; [23]
  Foxtail, Green plant response rating (0 to 100 scale): 60
[9]; [15]
  Plant response rating, Foxtail, Green: 70
[9]; [16]
  Plant response rating, Foxtail, Green: 98
[10]
  Plant response rating, Flood, Barnyardgrass: 0
[10]; [21]
  Plant response rating, Barnyardgrass: 0
[10]; [22]
  Plant response rating, Barnyardgrass: 0
[10]; [24]
  Barnyardgrass plant response rating: 0
[11]
  Plant response rating, Flood, Sedge, Umbrella: 25
[11]; [21]
  Plant response rating, Sedge, Umbrella: 0
[11]; [22]
  Plant response rating, Sedge, Umbrella: 0
[11]; [24]
  Sedge, Umbrella plant response rating: 0
